Measurements from ChEMBL document CHEMBL4387741, “Optimization of novel reversible Bruton's tyrosine kinase inhibitors identified using Tethering-fragment-based screens” (Bioorg Med Chem, 2019).

Tests used:
[1] = test system: Tyrosine-protein kinase ABL1 (Homo sapiens), P00519 [H396P]; assay: Inhibition of human phosphorylated ABL1 H396P mutant (S229 to K512 residues) expressed in mammalian expression system at 1 uM by Kinomescan method relative to control
[2] = test system: Tyrosine-protein kinase ABL1 (Homo sapiens), P00519 [Q252H]; assay: Inhibition of human non-phosphorylated ABL1 Q252H mutant (S229 to K512 residues) expressed in mammalian expression system at 1 uM by Kinomescan method relative to control
[3] = target: Tyrosine-protein kinase ABL1 (Homo sapiens) (UniProt P00519); assay: Inhibition of wild-type human phosphorylated ABL1 (S229 to K512 residues) expressed in mammalian expression system at 1 uM by Kinomescan method relative to control
[4] = target: Serine/threonine-protein kinase BRSK1 (Homo sapiens) (UniProt Q8TDC3); assay: Inhibition of wild-type human partial length BRSK1 (M1 to E754 residues) expressed in bacterial expression system at 1 uM by Kinomescan method relative to control
Sequence of Serine/threonine-protein kinase BRSK1 (Homo sapiens) (Q8TDC3 whole entry, the tested form may be a part): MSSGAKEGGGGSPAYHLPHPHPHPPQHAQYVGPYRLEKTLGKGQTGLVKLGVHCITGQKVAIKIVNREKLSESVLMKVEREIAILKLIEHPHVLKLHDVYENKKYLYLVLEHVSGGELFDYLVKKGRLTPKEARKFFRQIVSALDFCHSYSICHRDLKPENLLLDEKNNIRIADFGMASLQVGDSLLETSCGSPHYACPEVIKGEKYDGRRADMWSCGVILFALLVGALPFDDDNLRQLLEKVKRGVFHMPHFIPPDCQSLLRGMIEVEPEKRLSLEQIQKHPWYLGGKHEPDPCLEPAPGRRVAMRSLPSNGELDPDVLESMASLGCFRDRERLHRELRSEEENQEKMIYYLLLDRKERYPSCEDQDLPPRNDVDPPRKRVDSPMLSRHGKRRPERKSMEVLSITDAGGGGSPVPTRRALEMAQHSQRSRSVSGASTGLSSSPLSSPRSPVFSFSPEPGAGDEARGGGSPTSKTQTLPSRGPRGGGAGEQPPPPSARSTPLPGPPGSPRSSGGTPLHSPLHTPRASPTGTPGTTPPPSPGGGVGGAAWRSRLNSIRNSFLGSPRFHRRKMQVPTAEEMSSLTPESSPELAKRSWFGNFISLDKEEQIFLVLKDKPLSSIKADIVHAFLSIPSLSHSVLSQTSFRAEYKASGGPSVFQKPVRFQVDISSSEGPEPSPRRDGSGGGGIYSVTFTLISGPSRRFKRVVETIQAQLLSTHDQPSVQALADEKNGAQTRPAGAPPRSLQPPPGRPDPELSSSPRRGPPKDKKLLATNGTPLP

[5] = target: Calcium/calmodulin-dependent protein kinase type 1 (Homo sapiens) (UniProt Q14012); assay: Inhibition of wild-type human full length CAMK1 (M1 to L370 residues) expressed in bacterial expression system at 1 uM by Kinomescan method relative to control
[6] = target: Dual specificity protein kinase CLK3 (Homo sapiens) (UniProt P49761); assay: Inhibition of wild-type human full length CLK3 (M1 to R490 residues) expressed in bacterial expression system at 1 uM by Kinomescan method relative to control
[7] = target: Dual specificity tyrosine-phosphorylation-regulated kinase 1A (Homo sapiens) (UniProt Q13627); assay: Inhibition of wild-type human partial length DYRK1A (H129 to S509 residues) expressed in mammalian expression system at 1 uM by Kinomescan method relative to control
[8] = target: Platelet-derived growth factor receptor alpha (Homo sapiens) (UniProt P16234); assay: Inhibition of wild-type human partial length PDGFRA (V575 to D1002 residues) expressed in mammalian expression system at 1 uM by Kinomescan method relative to control
[9] = target: Calcium-dependent protein kinase 1 (Plasmodium falciparum) (UniProt P62344); assay: Inhibition of wild-type Plasmodium falciparum full length CDPK1 (M1 to S524 residues) expressed in mammalian expression system at 1 uM by Kinomescan method relative to control
Sequence of Calcium-dependent protein kinase 1 (Plasmodium falciparum) (P62344 2-524 limits assumed): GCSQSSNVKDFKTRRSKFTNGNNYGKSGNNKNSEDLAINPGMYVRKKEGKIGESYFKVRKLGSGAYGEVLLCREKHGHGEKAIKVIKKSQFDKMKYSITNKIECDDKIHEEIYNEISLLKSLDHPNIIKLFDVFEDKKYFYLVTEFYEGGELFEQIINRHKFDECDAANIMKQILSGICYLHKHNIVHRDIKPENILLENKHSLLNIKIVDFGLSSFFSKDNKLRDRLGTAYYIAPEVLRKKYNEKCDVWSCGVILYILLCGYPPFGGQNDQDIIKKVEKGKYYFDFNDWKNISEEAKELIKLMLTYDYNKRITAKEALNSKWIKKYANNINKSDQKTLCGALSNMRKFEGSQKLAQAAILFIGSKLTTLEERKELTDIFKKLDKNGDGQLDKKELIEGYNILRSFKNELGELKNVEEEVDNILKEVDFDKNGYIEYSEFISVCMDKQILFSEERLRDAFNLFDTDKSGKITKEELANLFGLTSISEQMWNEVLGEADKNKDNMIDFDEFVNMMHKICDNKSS

[10] = test system: Phosphatidylinositol 4,5-bisphosphate 3-kinase catalytic subunit alpha isoform (Homo sapiens), P42336 [E545A]; assay: Inhibition of human partial length PIK3CA E545A mutant (R108 to N1068 residues) expressed in mammalian expression system at 1 uM by Kinomescan method relative to control
[11] = target: Serine/threonine-protein kinase pim-2 (Homo sapiens) (UniProt Q9P1W9); assay: Inhibition of wild-type human partial length PIM2 (M1 to E291 residues) expressed in bacterial expression system at 1 uM by Kinomescan method relative to control
[12] = target: Ribosomal protein S6 kinase beta-1 (Homo sapiens) (UniProt P23443); assay: Inhibition of wild-type human partial length S6K1 (M1 to S421 residues) expressed in mammalian expression system at 1 uM by Kinomescan method relative to control
[13] = target: Serine/threonine-protein kinase 16 (Homo sapiens) (UniProt O75716); assay: Inhibition of wild-type human partial length STK16 (G11 to I305 residues) expressed in bacterial expression system at 1 uM by Kinomescan method relative to control
[14] = target: Mitogen-activated protein kinase kinase kinase 5 (Homo sapiens) (UniProt Q99683); assay: Inhibition of wild-type human partial length ASK1 (E648 to S964 residues) expressed in bacterial expression system at 10 uM by Kinomescan method relative to control
[15] = target: Fibroblast growth factor receptor 1 (Homo sapiens) (UniProt P11362); assay: Inhibition of wild-type human partial length FGFR1 (P357 to V669 residues) expressed in bacterial expression system at 10 uM by Kinomescan method relative to control
[16] = target: Interleukin-1 receptor-associated kinase 1 (Homo sapiens) (UniProt P51617); assay: Inhibition of wild-type human partial length IRAK1 (R194 to S712 residues) expressed in mammalian expression system at 10 uM by Kinomescan method relative to control
[17] = target: Tyrosine-protein kinase JAK1 (Homo sapiens) (UniProt P23458); assay: Inhibition of wild-type human partial length JAK1 JH1 catalytic domain (V856 to K1154 residues) expressed in bacterial expression system at 10 uM by Kinomescan method relative to control
Sequence of Tyrosine-protein kinase JAK1 (Homo sapiens) (P23458 whole entry, the tested form may be a part): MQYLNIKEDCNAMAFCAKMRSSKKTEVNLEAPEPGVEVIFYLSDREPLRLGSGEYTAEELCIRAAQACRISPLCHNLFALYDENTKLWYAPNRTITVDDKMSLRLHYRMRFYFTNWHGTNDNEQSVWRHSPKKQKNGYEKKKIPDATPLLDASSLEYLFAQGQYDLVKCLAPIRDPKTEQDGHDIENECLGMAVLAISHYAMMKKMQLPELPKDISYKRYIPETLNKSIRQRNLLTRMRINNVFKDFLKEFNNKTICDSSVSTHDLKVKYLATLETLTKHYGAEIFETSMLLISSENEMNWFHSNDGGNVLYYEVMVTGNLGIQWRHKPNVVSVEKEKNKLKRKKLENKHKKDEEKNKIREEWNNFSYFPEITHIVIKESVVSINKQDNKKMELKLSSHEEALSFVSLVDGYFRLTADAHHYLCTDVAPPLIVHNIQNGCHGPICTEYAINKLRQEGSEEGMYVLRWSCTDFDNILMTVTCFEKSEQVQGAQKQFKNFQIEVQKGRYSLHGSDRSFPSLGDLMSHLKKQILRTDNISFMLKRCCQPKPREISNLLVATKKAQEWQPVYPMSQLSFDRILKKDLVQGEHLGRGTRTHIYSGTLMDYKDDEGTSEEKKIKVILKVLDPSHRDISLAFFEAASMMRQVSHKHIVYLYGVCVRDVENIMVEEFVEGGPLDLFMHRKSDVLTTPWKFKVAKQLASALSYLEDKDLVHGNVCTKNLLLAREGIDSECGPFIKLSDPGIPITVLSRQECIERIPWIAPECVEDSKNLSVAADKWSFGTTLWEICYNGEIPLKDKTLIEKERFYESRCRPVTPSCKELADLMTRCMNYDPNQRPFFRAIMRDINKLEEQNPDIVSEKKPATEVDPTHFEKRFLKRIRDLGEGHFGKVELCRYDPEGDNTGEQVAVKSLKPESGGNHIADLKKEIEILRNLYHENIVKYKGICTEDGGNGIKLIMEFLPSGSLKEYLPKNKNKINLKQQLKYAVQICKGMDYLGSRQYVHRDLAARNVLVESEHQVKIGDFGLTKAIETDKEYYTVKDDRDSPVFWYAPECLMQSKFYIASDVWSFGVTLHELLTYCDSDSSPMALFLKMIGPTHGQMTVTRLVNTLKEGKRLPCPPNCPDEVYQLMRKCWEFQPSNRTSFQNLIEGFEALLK

[18] = target: Serine/threonine-protein kinase STK11 (Homo sapiens) (UniProt Q15831); assay: Inhibition of wild-type human full length LKB1 (M1 to Q433 residues) expressed in bacterial expression system at 10 uM by Kinomescan method relative to control
[19] = target: Dual specificity mitogen-activated protein kinase kinase 6 (Homo sapiens) (UniProt P52564); assay: Inhibition of wild-type human partial length MEK6 (K36 to D334 residues) expressed in bacterial expression system at 10 uM by Kinomescan method relative to control
[20] = target: Muscle, skeletal receptor tyrosine-protein kinase (Homo sapiens) (UniProt O15146); assay: Inhibition of wild-type human partial length MUSK (M553 to V869 residues) expressed in bacterial expression system at 10 uM by Kinomescan method relative to control
[21] = target: Cyclin-dependent kinase 14 (Homo sapiens) (UniProt O94921); assay: Inhibition of wild-type human full length PFTK1 (M1 to H451 residues) expressed in bacterial expression system at 10 uM by Kinomescan method relative to control
[22] = test system: Phosphatidylinositol 4,5-bisphosphate 3-kinase catalytic subunit alpha isoform (Homo sapiens), P42336 [H1047Y]; assay: Inhibition of human partial length PIK3CA H1047Y mutant (R108 to N1068 residues) expressed in mammalian expression system at 10 uM by Kinomescan method relative to control
Sequence of Phosphatidylinositol 4,5-bisphosphate 3-kinase catalytic subunit alpha isoform (Homo sapiens), P42336 [H1047Y] (P42336 whole entry H1047Y, the tested form may be a part, canonical isoform): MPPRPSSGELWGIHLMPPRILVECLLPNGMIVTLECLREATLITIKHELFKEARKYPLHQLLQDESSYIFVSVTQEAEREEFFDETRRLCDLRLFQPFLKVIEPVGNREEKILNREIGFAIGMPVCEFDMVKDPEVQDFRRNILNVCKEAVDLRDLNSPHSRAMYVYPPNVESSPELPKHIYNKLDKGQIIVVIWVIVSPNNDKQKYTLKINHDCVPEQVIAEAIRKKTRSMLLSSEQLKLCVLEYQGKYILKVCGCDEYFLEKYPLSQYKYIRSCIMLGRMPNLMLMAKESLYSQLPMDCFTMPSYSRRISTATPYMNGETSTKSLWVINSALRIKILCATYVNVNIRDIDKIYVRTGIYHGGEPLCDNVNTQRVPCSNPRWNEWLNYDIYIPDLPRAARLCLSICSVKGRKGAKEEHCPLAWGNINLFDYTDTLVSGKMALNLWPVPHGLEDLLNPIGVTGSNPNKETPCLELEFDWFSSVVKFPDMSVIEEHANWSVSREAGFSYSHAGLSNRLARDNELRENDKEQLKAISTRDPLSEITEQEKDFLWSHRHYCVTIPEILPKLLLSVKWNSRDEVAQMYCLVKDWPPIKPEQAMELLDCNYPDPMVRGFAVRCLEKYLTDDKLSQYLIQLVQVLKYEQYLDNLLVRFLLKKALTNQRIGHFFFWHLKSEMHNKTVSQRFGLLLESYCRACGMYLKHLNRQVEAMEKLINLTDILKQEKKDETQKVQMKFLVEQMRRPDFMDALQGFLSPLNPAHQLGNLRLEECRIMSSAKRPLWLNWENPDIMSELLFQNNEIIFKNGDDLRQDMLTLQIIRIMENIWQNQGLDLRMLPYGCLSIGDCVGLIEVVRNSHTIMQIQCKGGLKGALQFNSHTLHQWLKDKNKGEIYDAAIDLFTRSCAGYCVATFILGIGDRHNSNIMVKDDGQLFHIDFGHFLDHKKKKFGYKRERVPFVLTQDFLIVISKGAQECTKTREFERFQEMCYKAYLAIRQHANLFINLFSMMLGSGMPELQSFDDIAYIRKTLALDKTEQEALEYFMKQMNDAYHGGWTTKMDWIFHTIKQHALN

[23] = target: Protein-tyrosine kinase 2-beta (Homo sapiens) (UniProt Q14289); assay: Inhibition of wild-type human full length PYK2 (M1 to E967 residues) expressed in bacterial expression system at 10 uM by Kinomescan method relative to control
Sequence of Protein-tyrosine kinase 2-beta (Homo sapiens) (Q14289 whole entry, looked up, the tested form may be a part): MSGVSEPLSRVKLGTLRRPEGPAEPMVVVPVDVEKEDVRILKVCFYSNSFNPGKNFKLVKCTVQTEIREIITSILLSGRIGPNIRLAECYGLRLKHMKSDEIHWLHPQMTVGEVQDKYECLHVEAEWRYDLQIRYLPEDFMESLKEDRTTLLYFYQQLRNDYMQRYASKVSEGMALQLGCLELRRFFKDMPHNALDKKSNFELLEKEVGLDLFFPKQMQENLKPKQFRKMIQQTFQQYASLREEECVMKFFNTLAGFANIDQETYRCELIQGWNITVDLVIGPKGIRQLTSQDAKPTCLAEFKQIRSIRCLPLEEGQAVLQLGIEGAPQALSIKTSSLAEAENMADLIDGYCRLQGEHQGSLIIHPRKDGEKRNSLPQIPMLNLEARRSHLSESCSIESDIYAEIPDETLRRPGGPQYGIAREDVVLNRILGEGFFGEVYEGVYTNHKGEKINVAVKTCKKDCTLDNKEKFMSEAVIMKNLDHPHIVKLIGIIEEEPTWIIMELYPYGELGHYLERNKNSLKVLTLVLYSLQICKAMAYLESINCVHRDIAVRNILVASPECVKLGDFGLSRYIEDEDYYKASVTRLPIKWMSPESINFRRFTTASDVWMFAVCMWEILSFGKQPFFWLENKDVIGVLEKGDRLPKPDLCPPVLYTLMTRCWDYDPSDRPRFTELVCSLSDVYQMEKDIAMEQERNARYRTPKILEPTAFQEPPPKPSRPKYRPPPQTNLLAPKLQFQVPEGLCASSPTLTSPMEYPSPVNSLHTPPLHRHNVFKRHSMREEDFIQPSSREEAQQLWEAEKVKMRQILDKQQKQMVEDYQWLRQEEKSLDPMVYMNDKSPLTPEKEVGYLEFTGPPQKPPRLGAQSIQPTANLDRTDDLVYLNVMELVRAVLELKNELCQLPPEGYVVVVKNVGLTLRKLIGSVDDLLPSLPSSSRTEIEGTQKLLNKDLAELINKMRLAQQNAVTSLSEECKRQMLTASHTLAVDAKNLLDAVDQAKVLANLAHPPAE

[24] = target: Serine/threonine-protein kinase VRK2 (Homo sapiens) (UniProt Q86Y07); assay: Inhibition of wild-type human partial length VRK2 (M1 to T336 residues) expressed in mammalian expression system at 10 uM by Kinomescan method relative to control
[25] = target: Serine/threonine-protein kinase 25 (Homo sapiens) (UniProt O00506); assay: Inhibition of wild-type human partial length YSK1 (V14 to H295 residues) expressed in bacterial expression system at 10 uM by Kinomescan method relative to control
Sequence of Serine/threonine-protein kinase 25 (Homo sapiens) (O00506 whole entry, looked up, the tested form may be a part): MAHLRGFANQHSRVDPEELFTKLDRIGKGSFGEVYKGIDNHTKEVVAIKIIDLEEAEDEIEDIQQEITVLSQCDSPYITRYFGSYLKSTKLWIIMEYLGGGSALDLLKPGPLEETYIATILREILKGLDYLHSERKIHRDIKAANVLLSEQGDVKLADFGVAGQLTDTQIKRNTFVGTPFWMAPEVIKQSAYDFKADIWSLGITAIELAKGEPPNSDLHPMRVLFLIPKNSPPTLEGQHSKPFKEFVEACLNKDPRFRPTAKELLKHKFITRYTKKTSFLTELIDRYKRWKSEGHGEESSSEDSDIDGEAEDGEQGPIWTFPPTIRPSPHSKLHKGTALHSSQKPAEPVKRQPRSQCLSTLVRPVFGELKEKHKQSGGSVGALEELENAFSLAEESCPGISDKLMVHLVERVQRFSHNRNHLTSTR

[26] = target: Tyrosine-protein kinase ZAP-70 (Homo sapiens) (UniProt P43403); assay: Inhibition of wild-type human partial length ZAP70 (D20 to G299 residues) expressed in mammalian expression system at 10 uM by Kinomescan method relative to control

O=C(Nc1cccc([C@@H]2CN(c3ncnc4[nH]ccc34)CCN2CCO)c1)Nc1c(F)cccc1N1CCCC1
inhibition [1]: 71%
inhibition [2]: 55%
inhibition [3]: 62%
inhibition [4]: 100%
inhibition [5]: 95%
inhibition [6]: 94%
inhibition [7]: 87%
inhibition [8]: 85%
inhibition [9]: 71%
inhibition [10]: 65%
inhibition [11]: 100%
inhibition [12]: 48%
inhibition [13]: 82%

O=C(Nc1cccc([C@H]2CCCN(c3ncnc4[nH]ccc34)C2)c1)Nc1ccccc1N1CCCC1
inhibition [14]: 100%
inhibition [15]: 36%
inhibition [16]: 80%
inhibition [17]: 29%
inhibition [18]: 25%
inhibition [19]: 86%
inhibition [20]: 97%
inhibition [21]: 61%
inhibition [22]: 61%
inhibition [23]: 96%
inhibition [24]: 93%
inhibition [25]: 100%
inhibition [26]: 75%
